One compound from article PMC5855359, “A Statistical Thermodynamic Model for Ligands Interacting With Ion Channels: Theoretical Model and Experimental Validation of the KCNQ2 Channel” (Frontiers in Pharmacology, 2018) can be followed below.

For the experiment, the target named is T1, KCNQ2 (Homo sapiens, UniProt O43526).
T1 construct: WT KCNQ2 homotetrameric channel expressed in CHO cells
In words: whole-cell voltage clamp in transfected CHO cells, concentration-response of outward current potentiation. It counts as cell-based.

As usually defined, the EC50 is the concentration giving half of the maximal effect.

T1 sequence (O43526 whole entry): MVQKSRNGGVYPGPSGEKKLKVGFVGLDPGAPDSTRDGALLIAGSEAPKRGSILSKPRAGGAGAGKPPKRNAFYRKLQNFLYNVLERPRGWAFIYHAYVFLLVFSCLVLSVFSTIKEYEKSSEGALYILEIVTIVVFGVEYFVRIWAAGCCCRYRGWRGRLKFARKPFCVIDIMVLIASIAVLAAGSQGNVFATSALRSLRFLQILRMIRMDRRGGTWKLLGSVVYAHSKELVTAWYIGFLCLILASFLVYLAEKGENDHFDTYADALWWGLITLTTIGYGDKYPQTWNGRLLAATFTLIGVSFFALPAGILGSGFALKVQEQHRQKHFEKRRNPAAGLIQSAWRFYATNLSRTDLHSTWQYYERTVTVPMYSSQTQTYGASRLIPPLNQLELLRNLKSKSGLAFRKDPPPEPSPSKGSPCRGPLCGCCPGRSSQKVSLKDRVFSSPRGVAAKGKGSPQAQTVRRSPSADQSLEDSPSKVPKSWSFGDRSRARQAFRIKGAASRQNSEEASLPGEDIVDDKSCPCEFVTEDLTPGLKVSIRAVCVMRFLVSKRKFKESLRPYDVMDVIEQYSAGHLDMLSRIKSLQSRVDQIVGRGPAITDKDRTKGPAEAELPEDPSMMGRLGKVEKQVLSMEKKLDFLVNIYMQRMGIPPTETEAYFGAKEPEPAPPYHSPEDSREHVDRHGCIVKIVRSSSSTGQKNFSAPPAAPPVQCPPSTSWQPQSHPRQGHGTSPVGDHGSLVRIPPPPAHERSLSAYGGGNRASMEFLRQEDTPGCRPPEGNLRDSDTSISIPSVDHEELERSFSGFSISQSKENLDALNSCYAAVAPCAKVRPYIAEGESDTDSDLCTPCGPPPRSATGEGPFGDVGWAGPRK

Regarding `O=C(Nc1ccc(Cl)nc1)c1ccc(F)cc1` [ztz240, N-(6-chloro-pyridin-3-yl)-4-fluorobenzamide], the EC50 is ~5.8 µM.
